Patent US20040235795A1, “Utilization of phosphatidylserine in the treatment of attention deficit syndrome (adhs)” (priority 2001, published 2004)
“Also recorded” adds a separate entry of the source.

Assays:
[1] = system: attention deficit syndrome (ADHS) probands; assay: Open study of phosphatidylserine supplementation in ADHS probands (examples 1 to 4); type: in vivo, human
Procedure: Probands in an open study (examples 1 to 4) were selected with the aid of the Wender Utah Rating Scale (WURS) on the basis of their performance at school as well as clinical and physiological tests. They were assessed after 4, 6 and 8 weeks with the short-term supplementation and after 2, 4 and 6 months with the longer supplementation. The probands were examined for measurable differences with regard to concentration, attention, impulsivity, aggression potential and hyperactivity. Questionnaires were used to involve probands, parents and teachers in the evaluation.

ADHS patients = details: cited from earlier work
[2] = Example 3: 100 mg per day, 6 months, child, after the third month
[3] = high dosages 200 to 500 mg daily over 4 months

habituation effects ([1]; ADHS patients / probands with ADHS): no habituation effects occurred
Substance: phosphatidylserine
general well-being (reported by proband) ([1]; Example 2: 200 mg three times daily, 7 weeks, child): improvement
hyperactivity ([1]; Example 2: 200 mg three times daily, 7 weeks, child, end of supplementation): marked decline
attentiveness, concentration and memory performance as well as achievement at school ([1]; Example 3: 100 mg per day, 6 months, child): improved considerably
general well-being [1, 2]: improvement
mood [1, 2]: uplift
tolerance ([1]; even in high doses and over a longer supplementation period): no limitation whatsoever on its wellknown good tolerance; also recorded: well tolerated
improvement of the ADHS symptoms (ADHS patients; 100 mg per day over a period of 2 months): did not result in a clear improvement
side effects with drugs administered at the same time (ADHS patients; 100 to 500 mg daily): no side effects occurred
probands with positive effect (ADHS patients; 200 to 300 mg daily (severe symptoms up to 500 mg daily) over 4 months, probands aged 3 to 19 years): 25 of 27
improvement in single proband one (ADHS patients; [3]): not possible to make a clear statement about an improvement
improvement in single proband two (ADHS patients; [3]): only a slight improvement
